In one test the target is T1, RORγt-LBD (Homo sapiens, UniProt P51449).
T1 sequence (P51449 269-508 limits assumed): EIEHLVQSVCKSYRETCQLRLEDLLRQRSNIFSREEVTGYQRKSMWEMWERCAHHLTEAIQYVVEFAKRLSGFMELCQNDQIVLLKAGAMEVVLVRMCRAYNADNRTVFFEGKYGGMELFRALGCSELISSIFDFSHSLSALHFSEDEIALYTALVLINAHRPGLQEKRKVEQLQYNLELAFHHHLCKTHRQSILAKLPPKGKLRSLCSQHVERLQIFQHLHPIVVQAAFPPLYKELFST
Description: Time-resolved fluorescence resonance energy-transfer assay (TR-FRET), co-activator peptide recruitment. The format is biochemical. The arrangement: TR-FRET Biochemical Amax: unit not given here. Conditions: for EC50: His-RORγt-LBD 30 nM, SRC peptide 500 nM, agonistic activity, averages of one or more measurements, read-out: TR-FRET Biochemical EC50/; for TR-FRET Biochemical Amax: upper activation limit, His-RORγt-LBD, SRC peptide. In a few lines: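 Eu-anti-His-labelled His-RORγt-LBD (30 nM final) recruits biotin-SRC co-activator peptide (500 nM final), detected via APC-streptavidin (5 nM) and Eu-anti-His (0.25 nM). Buffer was Tris/KCl/EDTA at pH 7.0 with 0.01% Triton X-100 and 1 mM DTT. Compounds were tested at 7 points in 5-fold dilutions. Plates were incubated overnight at 4 °C then 1 h at RT, and agonism was read as the 665/615 nm ratio.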
(In general: Time-resolved FRET reads energy transfer from a long-lived donor to a nearby acceptor.)

Another test addresses T2, RORγt (Homo sapiens, UniProt P51449).
T2 construct: The plasmid of pFN26A-RORγt-LBD and pG14.35 (Promega, Cat. No. E1370) were co-transfected into HEK 293 cells; expressed in transfected cells; host or cells: HEK 293 cells (Cat. No. GNHu18)
T2 sequence (P51449 269-508 limits assumed): T1 sequence (P51449 269-508 limits assumed)
Description: RORγt cellular reporter gene detection assay.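 On Cellular Reporter Assay Amax: Ursolic Acid added as 5 µL of 20 µM medium per well.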 Format: cell-based. The note with it: 24 hrs; for EC50: HEK 293 cells co-transfected with pFN26A-RORγt-LBD and pG14.35, in presence of antagonist Ursolic acid, top concentration 50 μM; for Cellular Reporter Assay Amax: upper activation limit, HEK 293 cells, in presence of antagonist Ursolic acid. In a few lines:
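HEK293 cells co-transfected with RORγt-LBD and luciferase reporter plasmids, treated with Ursolic acid antagonist plus compound in 4-fold dilutions from 50 μM for 24 h at 37° C. Firefly and Renilla luminescence read; EC50 and Amax from four-parameter fit.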

In the case of `CC(C)(C(=O)O)N1CCN2c3ccc(/C=C/c4c(Cl)cccc4C(F)(F)F)cc3N(S(=O)(=O)c3cccc(C(F)(F)F)c3)C[C@@H]2C1` [Example 55, (S,E)-2-(8-(2-chloro-6-(trifluoro-methyl)styryl)-6-((3-(trifluoro-methyl)phenyl)sulfonyl)-1,2,4,4a,5,6-hexahydro-3H-pyrazino [1,2-a]quinoxalin-3-yl)-2-methylpropanoic acid], on RORγt-LBD, the EC50 is 46.6 nM and the “TR-FRET Biochemical Amax” value is on record as 0.78. Also, on RORγt, the EC50 is 508 nM and the “Cellular Reporter Assay Amax” value was found to be 2.7.
In the same order, the values of `O=S(=O)(c1cccc(C(F)(F)F)c1)N1C[C@@H]2CNCCN2c2ccc(/C=C/c3c(Cl)cccc3C(F)(F)F)cc21` [Example 11, (S,E)-8-(2-chloro-6-(tri-fluoromethyl)styryl)-6-((3-(trifluoromethyl)phenyl)sulfonyl)-2,3,4,4a,5,6-hexa-hydro-1H-pyrazino[1,2-a]quinoxaline] are 21.7 nM, 0.82, 429 nM and 3.2.
As for `O=S(=O)(c1cccc(C(F)(F)F)c1)N1CC2CSCCN2c2ccc(-c3cc(F)cc(OC(F)F)c3)cc21` (stereo not drawn) [Example 100, 8-(3-(difluoromethoxy)-5-fluorophenyl)-6-((3-(trifluoromethyl)phenyl)sulfonyl)-1,2,4,4a,5,6-hexahydro-[1,4]thiazino[4,3-a]quinoxaline], at RORγt-LBD, the EC50 came to 91.7 nM and the “TR-FRET Biochemical Amax” value is on record as 0.84. On RORγt, the EC50 worked out at 3450 nM and the “Cellular Reporter Assay Amax” value is recorded as 4.3.
The matching figures for `CC1(C)C=C(c2ccc3c(c2)N(S(=O)(=O)c2cccc(C(F)(F)F)c2)C[C@@H]2CN(C(=O)CC#N)CCN32)CC(C)(C)O1` [Example 31, (S)-3-oxo-3-(8-(2,2,6,6-tetramethyl-3,6-dihydro-2H-pyran-4-yl)-6-((3-(trifluoro-methyl)phenyl)sulfonyl)-1,2,4,4a,5,6-hexahydro-3H-pyrazino[1,2-a]quinoxa-lin-3-yl)propanenitrile]: 11.5 nM, 0.97, 419 nM and 3.4.
As for `C/C(=C\c1ccc2c(c1)N(S(=O)(=O)c1cccc(C(F)(F)F)c1)C[C@@H]1CN(C[C@@H](O)CO)CCN21)c1c(F)cccc1Cl` [Example 37, (R)-3-((S)-8-((E)-2-(2-chloro-6-fluorophenyl)prop-1-en-1-yl)-6-((3-(trifluoromethyl)phe-nyl)sulfonyl)-1,2,4,4a,5,6-hexa-hydro-3H-pyrazino[1,2-a]qui-noxalin-3-yl)propane-1,2-diol], at RORγt-LBD, the EC50 was 37.5 nM and the “TR-FRET Biochemical Amax” value is 1.21. Moreover, at RORγt, the EC50 stood at 366 nM and the “Cellular Reporter Assay Amax” value was found to be 3.7.
In the same order, the values of `NC(=S)N1CCN2c3ccc(/C=C/c4c(Cl)cccc4C(F)(F)F)cc3N(S(=O)(=O)c3cccc(C(F)(F)F)c3)C[C@@H]2C1` [Example 65, (S,E)-8-(2-chloro-6-(trifluoro-methyl)styryl)-6-((3-(trifluoro-methyl)phenyl)sulfonyl)-1,2,4,4a,5,6-hexahydro-3H-pyrazino [1,2-a]quinoxaline-3-carbothio-amide] are 8.4 nM, 0.89, 391 nM and 2.8.
The matching figures for `C/C(=C\c1ccc2c(c1)N(S(=O)(=O)c1cccc(C(F)(F)F)c1)C[C@@H]1CN(C[C@H](O)CO)CCN21)c1c(F)cccc1Cl` [Example 38, (S)-3-((S)-8-((E)-2-(2-chloro-6-fluorophenyl)prop-1-en-1-yl)-6-((3-(trifluoromethyl)phe-nyl)sulfonyl)-1,2,4,4a,5,6-hexa-hydro-3H-pyrazino[1,2-a]qui-noxalin-3-yl)propane-1,2-diol]: 40.7 nM, 1.23, 290 nM and 3.7.
In the same order, the values of `NC(=O)N1CCN2c3ccc(/C=C/c4c(Cl)cccc4C(F)(F)F)cc3N(S(=O)(=O)c3cccc(C(F)(F)F)c3)C[C@@H]2C1` [Example 60, (S,E)-8-(2-chloro-6-(trifluoromethyl)styryl)-6-((3-(trifluoromethyl)phenyl)sulfonyl)-1,2,4,4a,5,6-hexahydro-3H-pyrazino[1,2-a]quinoxalin-3-carboxamide] are 61.4 nM, 0.98, 249 nM and 2.8.
For `O=C(O)CCO[C@@H]1CCN2c3ccc(-c4cc(F)cc(OC(F)F)c4)cc3N(S(=O)(=O)c3cccc(C(F)(F)F)c3)C[C@@H]2C1` [Example 115, 3-(((6aS,8R)-3-(3-(difluorometh-oxy)-5-fluorophenyl)-5-((3-(tri-fluoromethyl)phenyl)sulfonyl)-6,6a,7,8,9,10-hexahydro-5H-pyrido[1,2-a]quinoxalin-8-yl)oxy)propanoic acid], on RORγt-LBD, the EC50 was 67.9 nM and the “TR-FRET Biochemical Amax” value came to 0.71. On RORγt, the EC50 was 178 nM and the “Cellular Reporter Assay Amax” value stood at 5.4.
Regarding `O=S(=O)(c1cccc(C(F)(F)F)c1)N1C[C@@H]2CN(C3COC3)CCN2c2ccc(/C=C/c3c(Cl)cccc3C(F)(F)F)cc21` [Example 32, (S,E)-8-(2-chloro-6-(trifluoromethyl)styryl)-3-(oxetan-3-yl)-6-((3-(trifluoromethyl)phenyl)sulfonyl)-2,3,4,4a,5,6-hexahydro-1H-pyrazino[1,2-a]quinoxaline], at RORγt-LBD, the EC50 was found to be 10.8 nM and the “TR-FRET Biochemical Amax” value came to 0.93. Besides, at RORγt, the EC50 amounted to 599 nM and the “Cellular Reporter Assay Amax” value was found to be 4.3.
In the same order, the values of `C/C(=C\c1ccc2c(c1)N(S(=O)(=O)c1cccc(C(F)(F)F)c1)C[C@@H]1CN(C(CO)CO)CCN21)c1c(F)cccc1Cl` [Example 69, (S,E)-2-(8-(2-(2-chloro-6-fluorophenyl)prop-1-en-1-yl)-6-((3-(trifluoromethyl)phenyl)sulfonyl)-1,2,4,4a,5,6-hexahydro-3H-pyrazino[1,2-a]quinoxalin-3-yl)propane-1,3-diol] are 44.4 nM, 1.05, 600 nM and 5.8.
In the same order, the values of `NC(=O)OC1CCN2c3ccc(-c4cc(F)cc(OC(F)F)c4)cc3N(S(=O)(=O)c3cccc(C(F)(F)F)c3)C[C@@H]2C1` (stereo partly drawn) [Example 104, (6aS)-3-(3-(difluoromethoxy)-5-fluorophenyl)-5-((3-(trifluoromethyl)phenyl)sulfonyl)-6,6a,7,8,9,10-hexahydro-5H-pyrido[1,2-a]quinoxalin-8-yl carbamate] are 46.3 nM, 0.81, 344 nM and 2.3.
The matching figures for `O=C(O)[C@H]1CCN2c3ccc(-c4cc(F)cc(OC(F)F)c4)cc3N(S(=O)(=O)c3cccc(C(F)(F)F)c3)C[C@@H]2C1` [Example 116, (6aS,8S)-3-(3-(difluoromethoxy)-5-fluorophenyl)-5-((3-(trifluoromethyl)phenyl)sulfonyl)-6,6a,7,8,9,10-hexahydro-5H-pyrido[1,2-a]quinoxaline-8-carboxylic acid]: 43.4 nM, 0.65, 301 nM and 5.4.
In the case of `C/C(=C\c1ccc2c(c1)N(S(=O)(=O)c1cccc(C(F)(F)F)c1)C[C@@H]1CN(C(N)=S)CCN21)c1c(F)cccc1Cl` [Example 63, (S,E)-8-(2-(2-chloro-6-fluorophenyl)prop-1-en-1-yl)-6-((3-(trifluoromethyl)phenyl)sulfonyl)-1,2,4,4a,5,6-hexahydro-3H-pyrazino[1,2-a]quinoxaline-3-carbothioamide], at RORγt-LBD, the EC50 was 23.5 nM and the “TR-FRET Biochemical Amax” value is 0.89. Moreover, at RORγt, the EC50 was determined as 308 nM and the “Cellular Reporter Assay Amax” value was 5.0.
In the case of `C/C(=C\c1ccc2c(c1)N(S(=O)(=O)c1cccc(C(F)(F)F)c1)C[C@@H]1CN(S(C)(=O)=O)CCN21)c1c(F)cccc1Cl` [Example 18, (S,E)-8-(2-(2-chloro-6-fluorophenyl)prop-1-en-1-yl)-3-(methylsulfonyl)-6-((3-(trifluoromethyl)phenyl)sulfonyl)-2,3,4,4a, 5,6-hexahydro-1H-pyrazino[1,2-a]quinoxaline], at RORγt-LBD, the EC50 was 15.1 nM and the “TR-FRET Biochemical Amax” value worked out at 0.62. For the same molecule, at RORγt, the EC50 came to 178 nM and the “Cellular Reporter Assay Amax” value came out at 4.3.

These data come from US20220009894A1, “1,2,3,4-TETRAHYDROQUINOXALINE DERIVATIVE, PREPARATION METHOD THEREFOR AND APPLICATION THEREOF” (Abbisko Therapeutics Co., Ltd., priority 2019, published 2022).
